Patent US10111874B2, “Combination therapies for treatment of cancer” (Araxes Pharma LLC, priority 2014, dated 2018)

Each compound was assayed against T1, KRAS G12C 1-169, his-tagged protein, GDP-loaded (Homo sapiens, UniProt P01116, G12C) (assay: Biochemical assay: covalent binding to KRAS G12C analyzed by mass spectrometry). Details: compounds 1-47, measured at 24 h.
T1 construct: KRAS G12C 1-169, his-tagged protein, GDP-loaded
Note: test concentration or dose not given here.

T1 sequence (P01116 1-169 isoform P01116-2 G12C): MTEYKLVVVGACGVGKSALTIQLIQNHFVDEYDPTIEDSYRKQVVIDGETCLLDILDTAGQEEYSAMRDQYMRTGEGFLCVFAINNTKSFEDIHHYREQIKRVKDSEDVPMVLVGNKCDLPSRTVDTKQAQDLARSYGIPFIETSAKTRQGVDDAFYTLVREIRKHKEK

SMILES | Binding %
C=CC(=O)N1CCN(c2ncnc3cc(Cl)c(-c4cccc(C#N)c4)cc23)CC1 [Compound I-19, 3-(4-(4-acryloylpiperazin-1-yl)-7-chloroquinazolin-6-yl)benzonitrile] | ++ (++indicates binding activity greater than 25% and up to 50%)
C=CC(=O)N1CCN(c2n[nH]c3cc(Cl)c(-c4ccccc4Cl)cc23)CC1 [Compound I-3, 1-(4-(6-chloro-5-(2-chlorophenyl)-1H-indazol-3-yl)piperazin-1-yl)prop-2-en-1-one] | + (+indicates binding activity from 5% to 25%)
C=CC(=O)N1CCN(c2ncnc3cc(Cl)c(-c4cc(F)ccc4Cl)cc23)CC1 [Compound I-23, 1-(4-(7-chloro-6-(2-chloro-5-fluorophenyl)quinazolin-4-yl)piperazin-1-yl)prop-2-en-1-one] | ++ (++indicates binding activity greater than 25% and up to 50%)

Same assay, conditions: compounds 48-246, measured at 2 h

SMILES | Binding %
C=CC(=O)N1CCN(c2ncnc3cc(-c4ccccc4CC)c(Cl)cc23)CC1 [Compound I-77, 1-(4-(6-chloro-7-(2-ethylphenyl)quinazolin-4-yl)piperazin-1-yl)prop-2-en-1-one] | +++ (+++indicates binding activity greater than 50% and up to 75%)
C=CC(=O)N1CCN(c2ncnc3cc(-c4ccc[nH]c4=O)c(Cl)cc23)CC1 [Compound I-170, 3-(4-(4-acryloylpiperazin-1-yl)-6-chloroquinazolin-7-yl)pyridin-2(1H)-one] | + (+indicates binding activity from 5% to 25%)
C=CC(=O)N1CCN(c2ncnc3cc(-c4c(O)ccc5ccccc45)c(C(F)(F)F)cc23)CC1 [Compound I-218, 1-(4-(7-(2-hydroxynaphthalen-1-yl)-6-(trifluoromethyl)quinazolin-4-yl)piperazin-1-yl)prop-2-en-1-one] | +++ (+++indicates binding activity greater than 50% and up to 75%)
C=CC(=O)N1CCN(c2ncnc3cc(Cl)c(-c4ccc(Cl)cc4)cc23)CC1CCO (centres unmarked) [Compound I-62, 1-(4-(7-chloro-6-(4-chlorophenyl)quinazolin-4-yl)-2-(2-hydroxyethyl)piperazin-1-yl)prop-2-en-1-one] | + (+indicates binding activity from 5% to 25%)
C=CC(=O)N1CCN(c2ncnc3cc(-c4c(O)cccc4C(F)(F)F)c(Cl)cc23)CC1 [Compound I-233, 1-(4-(6-chloro-7-(2-hydroxy-6-(trifluoromethyl)phenyl)quinazolin-4-yl)piperazin-1-yl)prop-2-en-1-one] | +++ (+++indicates binding activity greater than 50% and up to 75%)
CN(C)C/C=C/C(=O)N1CCN(c2ncnc3cc(-c4ccc(F)cc4F)c(Cl)cc23)CC1 [Compound I-219, (E)-1-(4-(6-chloro-7-(2,4-difluorophenyl)quinazolin-4-yl)piperazin-1-yl)-4-(dimethylamino)but-2-en-1-one] | + (+indicates binding activity from 5% to 25%)
C=CC(=O)N1CCN(c2ncnc3c(F)c(-c4c(O)cccc4F)c(Cl)cc23)CC1 [Compound I-227, 1-(4-(6-chloro-8-fluoro-7-(2-fluoro-6-hydroxyphenyl)quinazolin-4-yl)piperazin-1-yl)prop-2-en-1-one] | ++++ (++++indicates binding activity greater than 75%)
C=CC(=O)N1CCN(c2ncnc3cc(-c4ccc(F)cc4C(F)(F)F)c(Cl)cc23)CC1 [Compound I-119, 1-(4-(6-chloro-7-(4-fluoro-2-(trifluoromethyl)phenyl)quinazolin-4-yl)piperazin-1-yl)prop-2-en-1-one] | +++ (+++indicates binding activity greater than 50% and up to 75%)
CN(C)C/C=C/C(=O)N1CCN(c2ncnc3cc(-c4ccccc4)c(Cl)cc23)CC1 [Compound I-82, (E)-1-(4-(6-chloro-7-phenylquinazolin-4-yl)piperazin-1-yl)-4-(dimethylamino)but-2-en-1-one] | + (+indicates binding activity from 5% to 25%)
C=CC(=O)N1CCN(c2ncnc3cc(-c4ccc(F)cc4F)c(Cl)cc23)CC1C#N (centres unmarked) [Compound I-145, 1-acryloyl-4-(6-chloro-7-(2,4-difluorophenyl)quinazolin-4-yl)piperazine-2-carbonitrile] | ++++ (++++indicates binding activity greater than 75%)
C=CC(=O)N1CCN(c2ncnc3cc(-c4ccc(Cl)cc4)c(Cl)cc23)CC1CC#N (centres unmarked) [Compound I-110, 2-(1-acryloyl-4-(6-chloro-7-(4-chlorophenyl)quinazolin-4-yl)piperazin-2-yl)acetonitrile] | +++ (+++indicates binding activity greater than 50% and up to 75%)
C=CC(=O)N1CCN(c2ncnc3c(F)c(-c4ccccc4C(N)=O)c(Cl)cc23)CC1 [Compound I-236, 2-(4-(4-acryloylpiperazin-1-yl)-6-chloro-8-fluoroquinazolin-7-yl)benzamide] | +++ (+++indicates binding activity greater than 50% and up to 75%)
C=CC(=O)N1CCN(c2ncnc3cc(-c4cccc5c4CCCC5)c(Cl)cc23)CC1 [Compound I-148, 1-(4-(6-chloro-7-(5,6,7,8-tetrahydronaphthalen-1-yl)quinazolin-4-yl)piperazin-1-yl)prop-2-en-1-one] | +++ (+++indicates binding activity greater than 50% and up to 75%)
C=CC(=O)N1CCN(c2ncnc3cc(-c4ccccc4F)c(Cl)cc23)CC1C(N)=O (centres unmarked) [Compound I-120, 1-acryloyl-4-(6-chloro-7-(2-fluorophenyl)quinazolin-4-yl)piperazine-2-carboxamide] | +++ (+++indicates binding activity greater than 50% and up to 75%)
C=CC(=O)N1CCN(c2ncnc3cc(-c4ccccn4)c(Cl)cc23)CC1 [Compound I-92, 1-(4-(6-chloro-7-(pyridin-2-yl)quinazolin-4-yl)piperazin-1-yl)prop-2-en-1-one] | + (+indicates binding activity from 5% to 25%)
C=CC(=O)N1CC(N2CCN(C(=O)OC(C)(C)C)CC2)C1 [Example 50, tert-butyl 4-(1-acryloylazetidin-3-yl)piperazine-1-carboxylate] | + (+indicates binding activity from 5% to 25%)
C=CC(=O)N1CCN(c2ncnc3cc(-c4cc(Cl)ccc4O)c(Cl)cc23)CC1 [Compound I-118, 1-(4-(6-chloro-7-(5-chloro-2-hydroxyphenyl)quinazolin-4-yl)piperazin-1-yl)prop-2-en-1-one] | +++ (+++indicates binding activity greater than 50% and up to 75%)
C=CC(=O)N1CCN(c2ncnc3cc(-c4c(OC)ccc5[nH]ncc45)c(Cl)cc23)CC1 [Compound I-244, 1-(4-(6-chloro-7-(5-methoxy-1H-indazol-4-yl)quinazolin-4-yl)piperazin-1-yl)prop-2-en-1-one] | + (+indicates binding activity from 5% to 25%)
C=CC(=O)N1CCN(c2nccc3cc(Cl)ccc23)CC1C#N (centres unmarked) [Compound I-61, 1-acryloyl-4-(6-chloroisoquinolin-1-yl)piperazine-2-carbonitrile] | + (+indicates binding activity from 5% to 25%)
C=CC(=O)N1CCN(c2ncnc3cc(Cl)c(-c4ccc(Cl)cc4)cc23)C[C@@H]1C#N [Compound I-58, (R)-1-acryloyl-4-(7-chloro-6-(4-chlorophenyl)quinazolin-4-yl)piperazine-2-carbonitrile] | +++ (+++indicates binding activity greater than 50% and up to 75%)

Same assay, conditions: compounds 247-342, measured at 30 min

SMILES | Binding %
C=CC(=O)N1CCN(c2c(C#N)cnc3c(F)c(-c4c(C)ccc5[nH]ncc45)c(Cl)cc23)CC1C (centres unmarked) [Compound 336, 4-(4-acryloyl-3-methylpiperazin-1-yl)-6-chloro-8-fluoro-7-(5-methyl-1H-indazol-4-yl)quinoline-3-carbonitrile] | +++ (+++indicates binding activity greater than 50% and up to 75%)
Cc1coc(/C=C(\C#N)C(=O)N2CCN(c3ncnc4cc(-c5ccccc5F)c(Cl)cc34)CC2)n1 [Compound I-259, (E)-2-(4-(6-chloro-7-(2-fluorophenyl)quinazolin-4-yl)piperazine-1-carbonyl)-3-(4-methyloxazol-2-yl)acrylonitrile] | +++ (+++indicates binding activity greater than 50% and up to 75%)
C=CC(=O)N1CCN(c2ncnc3c(F)c(-c4c(O)cccc4F)c(C(F)(F)F)cc23)CC1 [Compound I-273, 1-(4-(8-fluoro-7-(2-dluoro-6-hydroxyphenyl)-6-(trifluoromethyl)quinaozlin-4-yl)piperazin-1-yl)prop-2-en-1-one] | ++++ (++++indicates binding activity greater than 75%)
C=CC(=O)N1CCN(c2ncnc3c(F)c(-c4cccc5c(C)n[nH]c45)c(Cl)cc23)CC1 [Compound 324, 1-(4-(6-chloro-8-fluoro-7-(3-methyl-1H-indazol-7-yl)quinazolin-4-yl)piperazin-1-yl)prop-2-en-1-one] | + (+indicates binding activity from 5% to 25%)

Same assay, conditions: determined at 2 hrs

SMILES | Binding %
C=CC(=O)N1CC(N2CCN(C(=O)CSc3cc(C4CC4)c(Cl)cc3OC)CC2)C1 [II-65, 1-(3-(4-(2-(4-Chloro-5-cyclopropyl-2-methoxyphenylthio)acetyl)piperazin-1-yl)azetidin-1-yl)prop-2-en-1-one] | + (+indicates binding activity from 5% to 20%)
C=CC(=O)N1CC(N2CCN(C(=O)CCc3cc(C4CC4)c(Cl)cc3O)CC2)C1 [II-58, 1-(3-(4-(3-(4-Chloro-5-cyclopropyl-2-hydroxyphenyl)propanoyl)piperazin-1-yl)azetidin-1-yl)prop-2-en-1-one] | + (+indicates binding activity from 5% to 20%)

Same assay, conditions: determined at 24 hrs

SMILES | Binding %
C=CC(=O)N1CC(N2CCN(C(=O)CNc3cc(Cl)c(Cl)cc3Cl)CC2)C1 [II-22, 1-(3-(4-(2-(2,4,5-trichlorophenyl-amino)acetyl)-piperazin-1-yl)azetidin-1-yl)prop-2-en-1-one] | + (+indicates binding activity from 5% to 15%)
C=CC(=O)N1CC(N2CCN(C(=O)c3cc(-c4cc(Cl)ccc4Cl)c(Cl)cc3OC)CC2)C1 [II-13, 1-(3-(4-(2′,5′,6-trichloro-4-methoxybiphenyl-carbonyl)piperazin-1-yl)azetidin-1-yl)prop-2-en-1-one] | ++ (++indicates binding activity greater than 15% and up to 25%)
C=CC(=O)N1CC(N2CCN(C(=O)CNc3cc(O)cc(Cl)c3)CC2)C1 [II-33, 1-(3-(4-(2-(3-chloro-5-hydroxyphenylamino)-acetyl)piperazin-1-yl)azetidin-1-yl)prop-2-en-1-one] | + (+indicates binding activity from 5% to 15%)
